Test results published in patent US6992079B2, “Substituted 11-phenyl-dibenzazepine compounds useful for the treatment or prevention of diseases characterized by abnormal cell proliferation” (President Fellows of Harvard College, priority 1997, dated 2006).
Read-outs that look alike come from different tables or passages of the source.

Tests used:
SK-OV-3 = experiment: In-Vitro Testing SRB panel: Ovarian Cancer; type: cell-based; conditions: SK-OV-3
HCT-15 = experiment: In-Vitro Testing SRB panel: Colon Cancer; type: cell-based; conditions: HCT-15
[1] = system: SU.86.86 pancreatic adenocarcinoma; experiment: Mouse xenograft tumor growth; type: in vivo, nude mice; conditions: SU.86.86 pancreatic adenocarcinoma mouse xenograft
NCI-H460 = type: cell-based; conditions: NCI-H460
[2] = system: H209 small lung cell carcinoma; experiment: Mouse xenograft tumor growth; type: in vivo, SCID mice
OVCAR-4 = experiment: In-Vitro Testing SRB panel: Ovarian Cancer; type: cell-based; conditions: OVCAR-4
[3] = system: squamous cell carcinoma (KLN-205) cells; experiment: Tumor growth in murine squamous cell carcinoma model; type: in vivo, mouse; conditions: KLN-205; subcutaneous injection or oral administration of 80 mg/kg/day for 30 days
MC-F7 = experiment: In-Vitro Testing SRB panel: Breast Cancer; type: cell-based
PC-3 = experiment: In-Vitro Testing SRB panel: Prostate Cancer; type: cell-based; conditions: PC-3
[4] = In-Vitro Testing SRB panel: Renal Cancer; type: cell-based; conditions: DO-31
[5] = Homo sapiens, read-out: LC50 (the source's name)

For COc1cccc2c1C(c1ccccc1Cl)c1cc(Cl)ccc1N(C(=O)c1ccc([N+](=O)[O-])cc1)C2 (centres unmarked) [Compound 31], the GI50 (SK-OV-3; Homo sapiens) was greater than 100000 nM, the CC50 (SK-OV-3; [5]) was greater than 100000 nM and the TGI (SK-OV-3) was greater than 1.00E−04 Molar. The “Percent Growth” value (SK-OV-3; log10 conc -4 Molar) was 63%, the “Percent Growth” value (SK-OV-3; log10 conc -5 Molar) was 85% and the “Percent Growth” value (SK-OV-3; log10 conc -6 Molar) was 88%. The “Percent Growth” value (SK-OV-3; log10 conc -7 Molar) was 102%, the “Percent Growth” value (SK-OV-3; log10 conc -8 Molar) was 97% and the TGI (HCT-15) was greater than 1.00E−04 Molar. The “Percent Growth” value (HCT-15; log10 conc -4 Molar) was 15%, the “Percent Growth” value (HCT-15; log10 conc -5 Molar) was 20% and the “Percent Growth” value (HCT-15; log10 conc -6 Molar) was 34%. The “Percent Growth” value (HCT-15; log10 conc -7 Molar) was 79%, the “Percent Growth” value (HCT-15; log10 conc -8 Molar) was 96% and the GI50 (HCT-15; Homo sapiens) was 444 nM. For the same compound, the CC50 (HCT-15; [5]) was greater than 100000 nM, the tumor growth [1] was “showed inhibition of tumor growth” and the GI50 (NCI-H460; Homo sapiens) was 595 nM. The CC50 (NCI-H460; [5]) was greater than 100000 nM, the TGI (NCI-H460) was 2.81E−05 Molar and the “Percent Growth” value (NCI-H460; log10 conc -4 Molar) was −16%. The “Percent Growth” value (NCI-H460; log10 conc -5 Molar) was 10%, the “Percent Growth” value (NCI-H460; log10 conc -6 Molar) was 36% and the “Percent Growth” value (NCI-H460; log10 conc -7 Molar) was 99%. The “Percent Growth” value (NCI-H460; log10 conc -8 Molar) was 96%, the tumor growth [2] was “showed inhibition of tumor growth” and the GI50 (OVCAR-4; Homo sapiens) was 1830 nM. For the same compound, the CC50 (OVCAR-4; [5]) was greater than 100000 nM, the TGI (OVCAR-4) was 8.34E−05 Molar and the “Percent Growth” value (OVCAR-4; log10 conc -4 Molar) was −1%. The “Percent Growth” value (OVCAR-4; log10 conc -5 Molar) was 16%, the “Percent Growth” value (OVCAR-4; log10 conc -6 Molar) was 62% and the “Percent Growth” value (OVCAR-4; log10 conc -7 Molar) was 83%. The “Percent Growth” value (OVCAR-4; log10 conc -8 Molar) was 91%, the tumor growth [3] was “significantly inhibited tumor growth” and the GI50 (MC-F7; Homo sapiens, MCF7) was 821 nM. The CC50 (MC-F7; Homo sapiens, MCF7, MC-F7, read-out: LC50 (the source's name)) was greater than 100000 nM, the TGI (MC-F7; MC-F7) was greater than 1.00E−04 Molar and the “Percent Growth” value (MC-F7; MC-F7, log10 conc -4 Molar) was 5%. For the same compound, the “Percent Growth” value (MC-F7; MC-F7, log10 conc -5 Molar) was 19%, the “Percent Growth” value (MC-F7; MC-F7, log10 conc -6 Molar) was 46% and the “Percent Growth” value (MC-F7; MC-F7, log10 conc -7 Molar) was 93%. For the same compound, the “Percent Growth” value (MC-F7; MC-F7, log10 conc -8 Molar) was 97%, the TGI (ERVX; ERVX) was greater than 1.00E−04 Molar and the “Percent Growth” value (ERVX; ERVX, log10 conc -4 Molar) was 7%. The “Percent Growth” value (ERVX; ERVX, log10 conc -5 Molar) was 27%, the “Percent Growth” value (ERVX; ERVX, log10 conc -6 Molar) was 80% and the “Percent Growth” value (ERVX; ERVX, log10 conc -7 Molar) was 103%. The “Percent Growth” value (ERVX; ERVX, log10 conc -8 Molar) was 100%, the GI50 (ERVX; Homo sapiens) was 3650 nM and the CC50 (ERVX; Homo sapiens, read-out: LC50) was greater than 100000 nM. It also gave a GI50 (PC-3; Homo sapiens) of 334 nM, a CC50 (PC-3; [5]) greater than 100000 nM and a TGI (PC-3) of 7.30E−06 Molar. The “Percent Growth” value (PC-3; log10 conc -4 Molar) was −26%, the “Percent Growth” value (PC-3; log10 conc -5 Molar) was −6% and the “Percent Growth” value (PC-3; log10 conc -6 Molar) was 35%. The “Percent Growth” value (PC-3; log10 conc -7 Molar) was 66%, the “Percent Growth” value (PC-3; log10 conc -8 Molar) was 91% and the TGI [4] was greater than 1.00E−04 Molar. For the same compound, the “Percent Growth” value ([4]; log10 conc -4 Molar) was 1% and the “Percent Growth” value ([4]; log10 conc -5 Molar) was 19%.
